According to BindingDB's records for patent US9334290 (Bristol Myers Squibb, 2016):

Target: Tyrosine-protein kinase JAK2 (Homo sapiens, UniProt O60674)
Test: Jak2 Tyrosine Kinase Assay
Details: pH 7.4; 25 °C

Tyrosine-protein kinase JAK2, sequence (O60674 whole entry): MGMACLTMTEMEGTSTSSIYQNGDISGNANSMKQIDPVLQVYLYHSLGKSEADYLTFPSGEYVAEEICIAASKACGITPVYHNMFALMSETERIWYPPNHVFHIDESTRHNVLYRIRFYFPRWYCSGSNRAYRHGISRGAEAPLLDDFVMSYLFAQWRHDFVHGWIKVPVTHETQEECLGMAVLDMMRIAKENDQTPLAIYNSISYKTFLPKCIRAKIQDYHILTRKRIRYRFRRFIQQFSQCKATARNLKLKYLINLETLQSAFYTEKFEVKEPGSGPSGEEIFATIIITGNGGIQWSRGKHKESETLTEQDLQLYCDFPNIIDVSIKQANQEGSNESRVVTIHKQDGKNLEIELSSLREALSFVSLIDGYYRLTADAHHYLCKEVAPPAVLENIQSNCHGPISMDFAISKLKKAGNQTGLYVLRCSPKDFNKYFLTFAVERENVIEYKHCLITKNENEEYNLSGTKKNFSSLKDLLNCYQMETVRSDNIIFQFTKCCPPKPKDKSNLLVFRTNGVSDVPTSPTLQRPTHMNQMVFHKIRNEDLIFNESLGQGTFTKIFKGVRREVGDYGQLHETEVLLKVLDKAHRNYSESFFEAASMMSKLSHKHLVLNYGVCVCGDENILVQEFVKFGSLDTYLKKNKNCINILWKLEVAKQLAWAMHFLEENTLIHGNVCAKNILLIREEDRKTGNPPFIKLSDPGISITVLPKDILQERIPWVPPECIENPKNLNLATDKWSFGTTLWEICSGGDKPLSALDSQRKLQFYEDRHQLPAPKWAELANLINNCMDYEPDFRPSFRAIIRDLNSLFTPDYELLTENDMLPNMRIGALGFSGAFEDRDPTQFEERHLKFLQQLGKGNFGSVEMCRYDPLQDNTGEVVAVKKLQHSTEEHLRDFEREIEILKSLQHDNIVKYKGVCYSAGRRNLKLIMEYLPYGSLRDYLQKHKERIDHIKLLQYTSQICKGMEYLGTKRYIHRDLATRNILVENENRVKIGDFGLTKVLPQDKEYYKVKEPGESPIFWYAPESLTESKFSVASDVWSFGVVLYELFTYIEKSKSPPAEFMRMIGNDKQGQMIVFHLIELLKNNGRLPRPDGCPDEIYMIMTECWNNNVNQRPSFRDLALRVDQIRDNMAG

IC50: 760 nM
SMILES: Cc1c(-c2c(F)cc(C(N)=O)c3[nH]c4cc(C(C)(C)O)ccc4c23)cccc1-n1c(=O)[nH]c2c(F)cccc2c1=O [US9334290, 21]
